This note sets out measurements from the OligoGym collection.

Only the 19 paired bases of each siRNA are shown; overhangs and chemistry are not given here.
Also: test concentration or dose not given here.

This data set deals with firefly luciferase. As to the kind of experiment: five studies, different assays. Particulars: siRNA.
As to “sense AAAAAGAGAUCGUGGAUUA / antisense UAAUCCACGAUCUCUUUUU”, the target inhibition was determined as 91.2%.

Regarding “sense AAAAAGUUGCGCGGAGGAG / antisense CUCCUCCGCGCAACUUUUU”, the target inhibition came to 38.8%.

As for “sense AAAACAUAAAGAAAGGCCC / antisense GGGCCUUUCUUUAUGUUUU”, the target inhibition was 11.1%.

For “sense AAAACUCGACGCAAGAAAA / antisense UUUUCUUGCGUCGAGUUUU”, the target inhibition came to 94.6%.

Take “sense AAAAUCAGAGAGAUCCUCA / antisense UGAGGAUCUCUCUGAUUUU”: the target inhibition is 88.4%.

Consider “sense AAAGACGAUGACGGAAAAA / antisense UUUUUCCGUCAUCGUCUUU”, for which the target inhibition turned out to be 73.9%.

As to “sense AAAGAGAUCGUGGAUUACG / antisense CGUAAUCCACGAUCUCUUU”, the target inhibition turned out to be 47.4%.

For the substance “sense AAAGGUCUUACCGGAAAAC / antisense GUUUUCCGGUAAGACCUUU”, the target inhibition worked out at 71.1%.

On to “sense AAAGUUGCGCGGAGGAGUU / antisense AACUCCUCCGCGCAACUUU”, for which the target inhibition came out at 95.5%.

As to “sense AACAACCGCGAAAAAGUUG / antisense CAACUUUUUCGCGGUUGUU”, the target inhibition was -5.7%.

Regarding “sense AACAUAAAGAAAGGCCCGG / antisense CCGGGCCUUUCUUUAUGUU”, the target inhibition was found to be 7.6%.

In the case of “sense AACUCGACGCAAGAAAAAU / antisense AUUUUUCUUGCGUCGAGUU”, the target inhibition was 90.2%.

As for “sense AACUUCCCGCCGCCGUUGU / antisense ACAACGGCGGCGGGAAGUU”, the target inhibition stood at 18.4%.

With “sense AAGAAAAAUCAGAGAGAUC / antisense GAUCUCUCUGAUUUUUCUU”, the target inhibition was 68.1%.

For the substance “sense AAGGCCCGGCGCCAUUCUA / antisense UAGAAUGGCGCCGGGCCUU”, the target inhibition is 23%.

As for “sense AAGUAACAACCGCGAAAAA / antisense UUUUUCGCGGUUGUUACUU”, the target inhibition came to 76.6%.

For “sense AAGUACCGAAAGGUCUUAC / antisense GUAAGACCUUUCGGUACUU”, the target inhibition came out at 64.3%.

As for “sense AAUCAGAGAGAUCCUCAUA / antisense UAUGAGGAUCUCUCUGAUU”, the target inhibition came out at 91.7%.

On to “sense ACCGAAAGGUCUUACCGGA / antisense UCCGGUAAGACCUUUCGGU”, for which the target inhibition amounted to 94.7%.

Consider “sense ACCGCGAAAAAGUUGCGCG / antisense CGCGCAACUUUUUCGCGGU”, for which the target inhibition is 29.9%.

Turning to “sense ACGAUGACGGAAAAAGAGA / antisense UCUCUUUUUCCGUCAUCGU”, the target inhibition came out at 80.7%.

As for “sense ACGCAAGAAAAAUCAGAGA / antisense UCUCUGAUUUUUCUUGCGU”, the target inhibition stood at 87.6%.

“sense ACGCCAAAAACAUAAAGAA / antisense UUCUUUAUGUUUUUGGCGU”: the target inhibition was 94.9%.

For the substance “sense ACGGAAAAAGAGAUCGUGG / antisense CCACGAUCUCUUUUUCCGU”, the target inhibition was 58.8%.

As for “sense ACGGAAAGACGAUGACGGA / antisense UCCGUCAUCGUCUUUCCGU”, the target inhibition was 73.8%.

Consider “sense ACGUCGCCAGUCAAGUAAC / antisense GUUACUUGACUGGCGACGU”, for which the target inhibition was 84.1%.

“sense ACGUGCAAAAAAAGCUCCC / antisense GGGAGCUUUUUUUGCACGU”: the target inhibition was 30%.

For “sense AGACGAUGACGGAAAAAGA / antisense UCUUUUUCCGUCAUCGUCU”, the target inhibition was 93.1%.

On to “sense AGAGAGAUCCUCAUAAAGG / antisense CCUUUAUGAGGAUCUCUCU”, for which the target inhibition amounted to 92.6%.

On to “sense AGAGAUCCUCAUAAAGGCC / antisense GGCCUUUAUGAGGAUCUCU”, for which the target inhibition was 38.7%.

As for “sense AGAGAUCGUGGAUUACGUC / antisense GACGUAAUCCACGAUCUCU”, the target inhibition was 82.8%.

Consider “sense AGAUCCUCAUAAAGGCCAA / antisense UUGGCCUUUAUGAGGAUCU”, for which the target inhibition was 78.2%.

Consider “sense AGAUCGUGGAUUACGUCGC / antisense GCGACGUAAUCCACGAUCU”, for which the target inhibition is 67%.

As for “sense AGGAGUUGUGUUUGUGGAC / antisense GUCCACAAACACAACUCCU”, the target inhibition worked out at 87.5%.

As to “sense AGGUCUUACCGGAAAACUC / antisense GAGUUUUCCGGUAAGACCU”, the target inhibition is 90.1%.

“sense AGUCAAGUAACAACCGCGA / antisense UCGCGGUUGUUACUUGACU”: the target inhibition is 88.5%.

As for “sense AGUUGCAGUUGCGCCCGCG / antisense CGCGGGCGCAACUGCAACU”, the target inhibition worked out at 37.3%.

Consider “sense AGUUGCGCGGAGGAGUUGU / antisense ACAACUCCUCCGCGCAACU”, for which the target inhibition is 93.6%.

Take “sense AUCCGCUGGAAGAUGGAAC / antisense GUUCCAUCUUCCAGCGGAU”: the target inhibition is 23.4%.

Regarding “sense AUCCUCAUAAAGGCCAAGA / antisense UCUUGGCCUUUAUGAGGAU”, the target inhibition is -12.8%.

As to “sense AUCGUGGAUUACGUCGCCA / antisense UGGCGACGUAAUCCACGAU”, the target inhibition is 44.2%.

For “sense AUGGAACCGCUGGAGAGCA / antisense UGCUCUCCAGCGGUUCCAU”, the target inhibition was determined as 35.4%.

Turning to “sense AUUAUCAUGGAUUCUAAAA / antisense UUUUAGAAUCCAUGAUAAU”, the target inhibition was 55.5%.

Regarding “sense CAAAUACGAUUUAUCUAAU / antisense AUUAGAUAAAUCGUAUUUG”, the target inhibition is 87.8%.

In the case of “sense CAACCGCGAAAAAGUUGCG / antisense CGCAACUUUUUCGCGGUUG”, the target inhibition was -1.3%.

In the case of “sense CAUUCUAUCCGCUGGAAGA / antisense UCUUCCAGCGGAUAGAAUG”, the target inhibition turned out to be 93.2%.

As to “sense CCAAUCAUCCAAAAAAUUA / antisense UAAUUUUUUGGAUGAUUGG”, the target inhibition came out at 97.5%.

Take “sense CCAGUCAAGUAACAACCGC / antisense GCGGUUGUUACUUGACUGG”: the target inhibition is 66.1%.

Turning to “sense CCCGCCGCCGUUGUUGUUU / antisense AAACAACAACGGCGGCGGG”, the target inhibition amounted to 42.3%.

For the substance “sense CCGCCGCCGUUGUUGUUUU / antisense AAAACAACAACGGCGGCGG”, the target inhibition turned out to be 60.8%.

On to “sense CCGCGAACGACAUUUAUAA / antisense UUAUAAAUGUCGUUCGCGG”, for which the target inhibition turned out to be 94.9%.

As for “sense CCGGAAAACUCGACGCAAG / antisense CUUGCGUCGAGUUUUCCGG”, the target inhibition amounted to 94.9%.

With “sense CCGGAUACUGCGAUUUUAA / antisense UUAAAAUCGCAGUAUCCGG”, the target inhibition was determined as 96.3%.

In the case of “sense CCGGUUAUGUAAACAAUCC / antisense GGAUUGUUUACAUAACCGG”, the target inhibition was 41.6%.

In the case of “sense CCGUUGUUGUUUUGGAGCA / antisense UGCUCCAAAACAACAACGG”, the target inhibition was found to be 89.3%.

For “sense CCUCCCGGUUUUAAUGAAU / antisense AUUCAUUAAAACCGGGAGG”, the target inhibition was determined as 73.5%.

Turning to “sense CCUUCAGGAUUACAAGAUU / antisense AAUCUUGUAAUCCUGAAGG”, the target inhibition came to 98.9%.

Regarding “sense CGAAAAAGUUGCGCGGAGG / antisense CCUCCGCGCAACUUUUUCG”, the target inhibition was 78.6%.

In the case of “sense CGAAAGGUCUUACCGGAAA / antisense UUUCCGGUAAGACCUUUCG”, the target inhibition was determined as 95%.

As for “sense CGAAGUACCGAAAGGUCUU / antisense AAGACCUUUCGGUACUUCG”, the target inhibition was 93.1%.

Regarding “sense CGACGCAAGAAAAAUCAGA / antisense UCUGAUUUUUCUUGCGUCG”, the target inhibition worked out at 95.9%.

“sense CGCCAGUCAAGUAACAACC / antisense GGUUGUUACUUGACUGGCG”: the target inhibition came to 79.5%.

As for “sense CGCCGCCGUUGUUGUUUUG / antisense CAAAACAACAACGGCGGCG”, the target inhibition was 51.3%.

Turning to “sense CGCCGUUGUUGUUUUGGAG / antisense CUCCAAAACAACAACGGCG”, the target inhibition amounted to 74.8%.

For “sense CGCGAAAAAGUUGCGCGGA / antisense UCCGCGCAACUUUUUCGCG”, the target inhibition was determined as 32.1%.

For the substance “sense CGGCGCCAUUCUAUCCGCU / antisense AGCGGAUAGAAUGGCGCCG”, the target inhibition stood at 53.8%.

With “sense CGUGGAUUACGUCGCCAGU / antisense ACUGGCGACGUAAUCCACG”, the target inhibition turned out to be 87.1%.

Turning to “sense CUCGACGCAAGAAAAAUCA / antisense UGAUUUUUCUUGCGUCGAG”, the target inhibition came to 91%.

In the case of “sense CUUACCGGAAAACUCGACG / antisense CGUCGAGUUUUCCGGUAAG”, the target inhibition is 94.3%.

Turning to “sense CUUCCCGCCGCCGUUGUUG / antisense CAACAACGGCGGCGGGAAG”, the target inhibition is 47.2%.

With “sense GAAAAAUCAGAGAGAUCCU / antisense AGGAUCUCUCUGAUUUUUC”, the target inhibition is 86.8%.

For the substance “sense GAAGUCUCUGAUUAAGUAC / antisense GUACUUAAUCAGAGACUUC”, the target inhibition worked out at 34.7%.

Regarding “sense GACAAAUACGAUUUAUCUA / antisense UAGAUAAAUCGUAUUUGUC”, the target inhibition was determined as 86.5%.

With “sense GACGAAGUACCGAAAGGUC / antisense GACCUUUCGGUACUUCGUC”, the target inhibition is 89.7%.

Consider “sense GACGCCAAAAACAUAAAGA / antisense UCUUUAUGUUUUUGGCGUC”, for which the target inhibition stood at 85.8%.

For “sense GAGCACGGAAAGACGAUGA / antisense UCAUCGUCUUUCCGUGCUC”, the target inhibition stood at 20.3%.

Regarding “sense GAGUUGUGUUUGUGGACGA / antisense UCGUCCACAAACACAACUC”, the target inhibition was 95.3%.

Turning to “sense GAUAUGGGCUGAAUACAAA / antisense UUUGUAUUCAGCCCAUAUC”, the target inhibition was determined as 91.9%.

On to “sense GAUGACGGAAAAAGAGAUC / antisense GAUCUCUUUUUCCGUCAUC”, for which the target inhibition came to 47.6%.

As for “sense GAUGAUAAACCGGGCGCGG / antisense CCGCGCCCGGUUUAUCAUC”, the target inhibition was determined as 52.9%.
